Source: US9044527B2, “Wound care products with peracid compositions” (CHD Bioscience, Inc., priority 2011, dated 2015)

Columns and labels:
[1] = tested on: methicillin resistant staphylococcus aureus (MRSA); assay: MRSA streaked blood agar plate treated with PPA film discs (simulated MIC test); assay type: cell-based; conditions: 6 mm film discs made with 100 ppm and 1000 ppm PPA compound, incubated overnight
Source text: This bulk film material illustrated in the drawings can be easily fit between layers of dressing or gauze and protected from the moisture in the bandage. […] To test efficacy and stability of the incorporated PPA compound, six millimeter discs were cut out of the PPA treated matrices and placed onto a methicillin resistant staphylococcus aureus (MRSA) streaked blood agar plate. […] This method simulated the well-known minimum inhibitory concentration (MIC) test. The blood agar plates were incubated overnight at optimal temperature and then observed for microbial kill.
The control film disc was the diameter of the grown of the 1000 ppm disc. The discs were placed on the blood agar plate and were dissolved by the moisture from the agar which allowed the PPA compound to migrate out of the film. […] Thus the 1000 ppm ratio of ppm concentration to the circle of kill diameter was greater than for the 100 ppm concentration to the circle diameter in millimeters.

e. coli 25922 [2] = conditions: 10 μg gentamicin disc, 6 mm; cited from earlier work
e. coli 25922 [3] = assay: Kirby-Bauer growth inhibition (disk diffusion) assay; assay type: cell-based; conditions: 10 μg gentamicin disc, 6 mm, 16-18 hours
Experimental: Kirby-Bauer growth inhibition (or disk diffusion susceptibility testing) is used to quantify the efficiency of antibiotics and/or to test the sensitivity of particular rapidly growing bacteria to an antibiotic.
A bacterial inoculum was prepared from log-phase cultures (ATCC e. coli 25922) to a standard density (approximately 1×10^8 CFU/ml, which is equivalent to a 0.5 McFarland turbidity). The inoculum was applied to a culture dish with Muller-Hinton nutrient agar.
Dissolvable thin film biocide preparations were prepared as Examples 1 or 3, but the spiked biocide was used at an original film-pour concentration of 20,000 ppm (recall that when the film-pour dries, it loses approximately 16-25× of its weight through solvent evaporation, and thus the final concentration of the biocide is much higher than the film-pour, although some is lost through evaporation as evidenced by the acetic acid smell during dry-down).
Samples of hydrogel (single FT cycle) were also used in some experiments where spiked biocide films were applied to the hydrogel surface and the bi-layer sample applied to the culture surface.
At the time of infection, test materials are applied to the surface of the agar. After a growth a 35-37° C. in air, for period of 16-18 hours, the diameter of the zone of inhibited bacteria growth can be visualized and measured with calipers. […]

Row | Compound | kill of MRSA (circle of kill diameter) [1] | zone inhibition diameter, published quality-control data (e. coli 25922 [2]) | control zone inhibition diameter (e. coli 25922 [3])
1 | CC(=O)C(=O)OO [PPA compound, peroxy pyruvic acid] | in proportion to the PPA concentration in the disc |  | 
2 | gentamicin [Sensi-Disc] |  | 19-26 mm | agrees with published quality-control data
